Source: patent publication US9347934B2, “Assays for identifying compounds that modulate bitter taste” (CHROMOCELL CORPORATION, priority 2011, dated 2016)

Assays:
Format in all cases: cell-based
TAS2R5 = target: T1, TAS2R5 (Homo sapiens, UniProt Q9NYW4); test: Calcium fluorescence functional assay, TAS2R5 cell line; conditions: 20 mM tastant; cell line expressing human TAS2R5 and mouse Gα15
T1 construct: expressed in transfected cells
T1 sequence (Q9NYW4 1-299): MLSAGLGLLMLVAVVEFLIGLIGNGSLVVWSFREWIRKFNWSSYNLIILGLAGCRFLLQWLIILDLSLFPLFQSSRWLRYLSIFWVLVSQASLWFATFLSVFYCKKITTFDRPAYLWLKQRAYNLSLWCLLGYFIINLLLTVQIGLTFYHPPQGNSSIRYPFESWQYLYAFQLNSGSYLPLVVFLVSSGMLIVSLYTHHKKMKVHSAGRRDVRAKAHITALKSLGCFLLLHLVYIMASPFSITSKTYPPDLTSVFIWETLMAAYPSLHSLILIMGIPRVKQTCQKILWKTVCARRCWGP
Protocol: (§1) Accordingly, each cell line of the panel expressed a human bitter taste receptor and mouse Gα15 signaling protein.
(§2) Probenecid was not included in the load solution.
(§3) After dye loading, cell plates were placed in a fluorescent plate reader (e.g., FDSS6000 (Hamamatsu, Japan)) and receptor stimulation was measured by adding 50 ul of 3× concentrated ligand/agonist stock. Fluorescence was monitored continuously for 10 s before agonist addition and for 100-250 s after stimulation with agonist.
(§4) Receptor Activation is defined as follows: % Activation=[((Maximum signal fluorescence−Minimum signal fluorescence)−(Maximum control fluorescence−Minimum control fluorescence))/(Maximum buffer fluorescence−Minimum buffer fluorescence)]*100 Functional Response=[(Maximum signal fluorescence−Minimum signal fluorescence)−(Maximum control fluorescence−Minimum control fluorescence)] • Signal Fluorescence: refers to the change in fluorescence seen with addition of ligand • Control fluorescence: refers to the change in fluorescence seen with addition of buffer (negative control) • Calcium signals from ligand and control were normalized to the basal fluorescence of the cells prior to the stimulation.
(§5) A concentration analysis was performed and EC50 values were calculated by nonlinear regression using the formula: Y=Bottom+(Top-Bottom)/(1+10^((Log EC50-X)*Hill Slope)), X=log of dose or concentration, Y=Response (increasing as X increases), Top=maximum signal, Bottom=minimum signal.

TAS2R48 = target: T2, TAS2R48 (Homo sapiens, UniProt P59542); test: Calcium fluorescence functional assay, TAS2R48 cell line; conditions: 20 mM tastant; cell line expressing human TAS2R48 and mouse Gα15
T2 construct: expressed in transfected cells
T2 sequence (P59542 1-299): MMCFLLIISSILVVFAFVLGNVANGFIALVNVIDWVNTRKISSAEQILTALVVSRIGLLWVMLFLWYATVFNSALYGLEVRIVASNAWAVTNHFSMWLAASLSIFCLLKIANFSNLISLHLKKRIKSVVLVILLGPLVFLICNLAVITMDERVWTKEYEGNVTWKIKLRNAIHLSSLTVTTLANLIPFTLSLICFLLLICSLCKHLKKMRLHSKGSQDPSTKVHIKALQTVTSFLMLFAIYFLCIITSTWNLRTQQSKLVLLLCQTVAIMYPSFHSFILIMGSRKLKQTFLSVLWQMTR
Protocol: as §1, §2, §3, §4, §5

TAS2R60 = target: T3, TAS2R60 (Homo sapiens, UniProt P59551); test: Calcium fluorescence functional assay, TAS2R60 cell line; conditions: for TAS2R60 bitter taste receptor activity (changes in intracellular calcium): 20 mM tastant, cell line expressing human TAS2R60 and mouse Gα15
T3 construct: expressed in transfected cells
T3 sequence (P59551 1-318): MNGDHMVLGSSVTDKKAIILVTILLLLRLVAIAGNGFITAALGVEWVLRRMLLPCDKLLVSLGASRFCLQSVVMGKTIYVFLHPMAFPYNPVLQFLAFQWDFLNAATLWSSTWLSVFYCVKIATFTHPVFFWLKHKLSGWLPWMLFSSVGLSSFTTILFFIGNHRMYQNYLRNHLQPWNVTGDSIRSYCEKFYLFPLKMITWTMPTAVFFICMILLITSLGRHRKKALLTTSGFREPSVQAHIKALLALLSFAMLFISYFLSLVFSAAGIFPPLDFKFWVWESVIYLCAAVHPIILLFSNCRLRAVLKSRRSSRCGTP
Protocol: as §1, §2, §3, §4, §5

TAS2R40 = target: T4, TAS2R40 (Homo sapiens, UniProt P59535); test: Calcium fluorescence functional assay, TAS2R40 cell line; conditions: 20 mM tastant; cell line expressing human TAS2R40 and mouse Gα15
T4 construct: expressed in transfected cells
T4 sequence (P59535 whole entry): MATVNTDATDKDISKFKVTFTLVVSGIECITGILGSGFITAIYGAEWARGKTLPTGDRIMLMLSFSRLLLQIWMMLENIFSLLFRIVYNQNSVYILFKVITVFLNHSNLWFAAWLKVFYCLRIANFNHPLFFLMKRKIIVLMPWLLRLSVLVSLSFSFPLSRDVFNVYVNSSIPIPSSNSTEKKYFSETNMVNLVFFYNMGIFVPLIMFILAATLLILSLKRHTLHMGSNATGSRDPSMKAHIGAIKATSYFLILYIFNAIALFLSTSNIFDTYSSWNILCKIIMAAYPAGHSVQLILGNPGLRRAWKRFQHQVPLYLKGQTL
Protocol: as §1, §2, §3, §4, §5

TAS2R43 = target: T5, TAS2R43 (Homo sapiens, UniProt P59537); test: Calcium fluorescence functional assay, TAS2R43 cell line; conditions: 20 mM tastant; cell line expressing human TAS2R43 and mouse Gα15
T5 construct: expressed in transfected cells
T5 sequence (P59537 1-309): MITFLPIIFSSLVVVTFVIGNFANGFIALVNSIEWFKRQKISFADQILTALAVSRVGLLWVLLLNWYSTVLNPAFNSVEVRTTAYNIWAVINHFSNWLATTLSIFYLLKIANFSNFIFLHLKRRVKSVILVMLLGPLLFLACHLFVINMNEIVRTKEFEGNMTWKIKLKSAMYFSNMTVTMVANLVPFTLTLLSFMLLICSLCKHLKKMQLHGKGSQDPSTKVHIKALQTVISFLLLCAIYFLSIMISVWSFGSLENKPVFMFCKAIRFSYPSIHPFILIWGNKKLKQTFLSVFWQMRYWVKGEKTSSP
Protocol: as §1, §2, §3, §4, §5

TAS2R4 = target: T6, TAS2R4 (Homo sapiens, UniProt Q9NYW5); test: Calcium fluorescence functional assay, TAS2R4 cell line; conditions: for TAS2R4 bitter taste receptor activity (changes in intracellular calcium): 20 mM tastant, cell line expressing human TAS2R4 and mouse Gα15
T6 construct: expressed in transfected cells
T6 sequence (Q9NYW5 1-299): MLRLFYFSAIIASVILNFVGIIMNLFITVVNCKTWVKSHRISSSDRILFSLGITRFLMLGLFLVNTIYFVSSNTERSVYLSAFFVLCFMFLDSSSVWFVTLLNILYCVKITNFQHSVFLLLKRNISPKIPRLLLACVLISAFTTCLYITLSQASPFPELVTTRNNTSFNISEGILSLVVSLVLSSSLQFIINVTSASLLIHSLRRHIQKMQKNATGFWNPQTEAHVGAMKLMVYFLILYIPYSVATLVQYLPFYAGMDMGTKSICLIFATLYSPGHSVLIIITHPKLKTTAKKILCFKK
Protocol: as §1, §2, §3, §4, §5

TAS2R9 = target: T7, TAS2R9 (Homo sapiens, UniProt Q9NYW1); test: Calcium fluorescence functional assay, TAS2R9 cell line; conditions: for TAS2R9 bitter taste receptor activity (changes in intracellular calcium): 20 mM tastant, cell line expressing human TAS2R9 and mouse Gα15
T7 construct: expressed in transfected cells
T7 sequence (Q9NYW1 1-312): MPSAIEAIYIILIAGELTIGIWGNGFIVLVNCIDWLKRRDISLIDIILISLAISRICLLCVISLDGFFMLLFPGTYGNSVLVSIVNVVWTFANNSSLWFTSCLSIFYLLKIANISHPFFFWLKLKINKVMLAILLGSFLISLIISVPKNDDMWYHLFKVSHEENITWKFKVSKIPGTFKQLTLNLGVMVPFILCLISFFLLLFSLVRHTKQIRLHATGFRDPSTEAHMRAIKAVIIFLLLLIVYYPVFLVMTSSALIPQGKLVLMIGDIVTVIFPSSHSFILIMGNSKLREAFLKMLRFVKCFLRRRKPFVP
Protocol: as §1, §2, §3, §4, §5

CC1=CC(=O)NS(=O)(=O)O1 [Acesulfame K]
TAS2R5 bitter taste receptor activity (changes in intracellular calcium) (TAS2R5): did not induce
TAS2R48 bitter taste receptor activity (changes in intracellular calcium) (TAS2R48): did not induce
TAS2R60 bitter taste receptor activity (changes in intracellular calcium) (TAS2R60): did not induce
TAS2R40 bitter taste receptor activity (changes in intracellular calcium) (TAS2R40): did not induce
TAS2R43 bitter taste receptor activity (changes in intracellular calcium) (TAS2R43): did not induce
TAS2R4 bitter taste receptor activity (changes in intracellular calcium) (TAS2R4): induced
TAS2R9 bitter taste receptor activity (changes in intracellular calcium) (TAS2R9): induced

[Cl-].[K+] [KCl, potassium chloride]
TAS2R5 bitter taste receptor activity (changes in intracellular calcium) (TAS2R5): did not induce
TAS2R48 bitter taste receptor activity (changes in intracellular calcium) (TAS2R48): did not induce
TAS2R60 bitter taste receptor activity (changes in intracellular calcium) (TAS2R60): induced
EC50 (TAS2R60; increasing concentrations of KCl, TAS2R60 cell line (FIG. 3), read-out: EC50 value, activation of TAS2R60): 5 to 15 mM
TAS2R40 bitter taste receptor activity (changes in intracellular calcium) (TAS2R40): did not induce
TAS2R43 bitter taste receptor activity (changes in intracellular calcium) (TAS2R43): did not induce
TAS2R4 bitter taste receptor activity (changes in intracellular calcium) (TAS2R4): induced
EC50 (TAS2R4; increasing concentrations of KCl, TAS2R4 cell line (FIG. 3), read-out: EC50 value, activation of TAS2R4): 5 to 15 mM
TAS2R9 bitter taste receptor activity (changes in intracellular calcium) (TAS2R9): induced
EC50 (TAS2R9; increasing concentrations of KCl, TAS2R9 cell line (FIG. 3), read-out: EC50 value, activation of TAS2R9): 5 to 15 mM

CC(O)C(=O)[O-].[K+] (stereo not drawn) [Potassium lactate, potassium lactate]
TAS2R5 bitter taste receptor activity (changes in intracellular calcium) (TAS2R5): did not induce
TAS2R48 bitter taste receptor activity (changes in intracellular calcium) (TAS2R48): did not induce
TAS2R60 bitter taste receptor activity (changes in intracellular calcium) (TAS2R60): induced
TAS2R40 bitter taste receptor activity (changes in intracellular calcium) (TAS2R40): did not induce
TAS2R43 bitter taste receptor activity (changes in intracellular calcium) (TAS2R43): did not induce
TAS2R4 bitter taste receptor activity (changes in intracellular calcium) (TAS2R4): induced
TAS2R9 bitter taste receptor activity (changes in intracellular calcium) (TAS2R9): induced
